Test results: patent publication US20180338993A1, “TREATMENT OF HEPATITIS DELTA VIRUS INFECTION” (Eiger BioPharmaceuticals, Inc., priority 2014, published 2018)
Converted amounts (≈) assume the structure as drawn. Like-named read-outs stand apart in the source and are kept apart here.

Columns and labels:
[1] = Solubility in water, buffers and physiological fluids; assay type: physicochemical
From the text: Tipifarnib is a methyl-quinolinone with a molecular formula of C27H22Cl2N4O and molecular weight of 489.40. […] These are safe and well tested excipients that are commonly used in marketed products. The film coatings of the tablets contain hypromellose, titanium dioxide, lactose monohydrate, polyethylene glycol, and triacetin. “Tipifarnib derivative” as used herein refers not only to R208176 but also to molecules closely structurally related to either tipifarnib or R208176 with similar pharmacologic activity against HDV; this term includes, for example and without limitation, compounds described in U.S. Pat. Nos. 6,169,096; 6,365,600; 6,420,387; 6,734,194; 6,743,805; 6,838,467; and 7,253,183.
R208176 is an off-white, non-hygroscopic and crystalline powder. It has a molecular weight of 501.4 Daltons and a molecular formula of C25H18Cl2N8.

[2] = cited from earlier work

solubility ([1]; 0.1 N HCl, simulated gastric fluid, read-out: solubility in 0.1 N HCl) [µg/mL]	solubility in 0.1 N NaOH ([1]; 0.1 N NaOH)	solubility ([1]; aqueous buffer, citrate-HCl buffer pH 4, read-out: solubility in citrate-HCl buffer pH 4) [µg/mL]	solubility in borate-HCl buffer pH 8 ([1]; borate-HCl buffer pH 8)	solubility in borate-KCl—NaOH buffer pH 10 ([1]; borate-KCl—NaOH buffer pH 10)	solubility in citrate-HCl buffer pH 2 ([1]; citrate-HCl buffer pH 2)	solubility in citrate-NaOH buffer pH 6 ([1]; citrate-NaOH buffer pH 6)	solubility ([1]; gastric fluid, simulated gastric fluid, read-out: solubility in gastric fluid) [µg/mL]	solubility in intestinal fluid ([1]; intestinal fluid)	Compound	solubility in water [1]	solubility in 0.1 N HCl ([1]; 0.1 N HCl)	solubility in citrate-HCl buffer ([1]; citrate-HCl buffer)	solubility in citrate-NaOH buffer ([1]; citrate-NaOH buffer)	solubility in phosphate buffers ([1]; phosphate buffers)	DLTs at 200 mg BID ([2]; 200 mg BID dose, dosed for 200 days)	patients stopping treatment due to adverse events (grade 3 or 4) ([2]; 13 cancer patients)	Dose limiting toxicities ([2]; cancer patients, continuous oral BID dosing)	MTD ([2]; cancer patients, orally BID, continuous dosing for up to 56 days) [mg]	Most common AEs ([2]; cancer patients)
10000 to 33000 (≈ 19.9 to 65.8 mM)	practically insoluble	100 to 1000 (≈ 0.199 to 1.99 mM)	practically insoluble	practically insoluble	slightly soluble	practically insoluble	10000 to 33000 (≈ 19.9 to 65.8 mM)	practically insoluble	Cn1cncc1[C@@](N)(c1ccc(Cl)cc1)c1ccc2c(c1)c(-c1cccc(Cl)c1)nc1nnnn12 [R208176]	practically insoluble									
									Cn1cncc1[C@@](N)(c1ccc(Cl)cc1)c1ccc2c(c1)c(-c1cccc(Cl)c1)cc(=O)n2C [tipifarnib, (R)-6-[amino(4-chlorophenyl)(1-methyl-1H-imidazol-5-yl)methyl]-4-(3-chlorophenyl)-1-methyl-2(1H)-quinolinone]	insoluble	moderately soluble	slightly soluble	insoluble	insoluble	No DLTs were observed	4 of 13	granulocytopenia and neuropathy	300	gastrointestinal-related
